Patent publication US11760722B2 (priority 2022, dated 2023)
Where “and” joins values, the source holds several entries; their conditions need not be identical. Equal entries are not always repeated. Where two headings read alike, the source gives them in different places.

Columns and labels:
[1] = biological target: T1, COVID-19 WT Mpro (Severe acute respiratory syndrome coronavirus 2, UniProt P0DTD1); assay: biochemical; conditions: WT Mpro 25 nM, substrate 25 μM, 30 min pre-incubation; several values in a cell = repeat determinations
T1 construct: The C-His6-tagged COVID-19 WT Mpro (NC_045512); His6 (C); host or cells: E. coli

[2] = system: SARS-CoV-2 replicon; assay: microbe, parasite or virus in culture; assay type: cell-based; conditions: read-out: Replicon EC50
[3] = system: human coronavirus (HCoV) 229E; assay: microbe, parasite or virus in culture; assay type: cell-based, human coronavirus 229E; conditions: MRCS cells, HCoV 229E, 3 days, CellTiter Glo, read-out: 229E CPE EC50
Description: Test compounds were provided by the sponsor. Reference compound remdesivir was provided by WuXi AppTec. Compounds were assayed at 8 concentrations (to be defined by sponsor), in duplicate wells.
MRCS cells were obtained from the ATCC, and maintained in the Minimum Essential Medium supplemented with 10% FBS, 1% L-glutamine, 1% NEAA and 1% penicillin-streptomycin. Minimum Essential Medium supplemented with 5% FBS, 1% L-glutamine, 1% NEAA and 1% penicillin-streptomycin was used as the assay medium.
Cells were seeded in 96 well plates, in 100 μl per well of assay medium, and cultured at 37° C. and 5% CO2 overnight. Next day, test compound was diluted with assay medium and then added into the cells, 50 μl per well. Then 50 μl per well of assay medium diluted virus was added. The final volume of the cell culture was 200 μl per well. […] The CPE were measured by CellTiter Glo following the manufacturer's manual. The antiviral activity of compounds was calculated based on the protection of the virus-induced CPE at each concentration normalized by the virus control.
EC50 and CC50 values were calculated using the GraphPad Prism software using the nonlinear regression model of log(inhibitor) vs. response—Variable slope (four parameters).

[4] = Severe acute respiratory syndrome coronavirus 2, Huh-7, 24 h
[5] = unidentified human coronavirus, 72 h

## CC(C)(C)OC(=O)N1CCCC1(C)C(=O)N[C@H](C(=O)N1C[C@H]2[C@@H]([C@H]1C(=O)N[C@H](C#N)C[C@@H]1CCNC1=O)C2(C)C)C(C)(C)C (stereo partly shown) [Compound 57]
[1]
  IC50: 0.057 µM
[2]; [4]
  EC50: 0.4 µM

## CN(C)C(=O)N[C@H](C(=O)N1C[C@H]2[C@@H]([C@H]1C(=O)N[C@H](C#N)C[C@@H]1CCNC1=O)C2(C)C)C(C)(C)C [Compound 39, (1R,2S,5S)—N—((S)-1-cyano-2-((S)-2-oxopyrrolidin-3-yl)ethyl)-3-((S)-2-(3,3-dimethylureido)-3,3-dimethylbutanoyl)-6,6-dimethyl-3-azabicyclo[3.1.0]hexane-2-carboxamide]
[1]
  IC50: 0.421 µM
[3]; [5]
  EC50: > 30 µM
[2]; [4]
  EC50: 17.6 µM

## CC(C)(C)[C@H](NC(=O)N1CCOCC1)C(=O)N1C[C@H]2[C@@H]([C@H]1C(=O)N[C@H](C#N)C[C@@H]1CCNC1=O)C2(C)C [Compound 48]
[1]
  IC50: 0.224 µM
[2]; [4]
  EC50: 22 µM

## CC(C)(C)[C@H](NC(=O)c1ccc2cc[nH]c2c1)C(=O)N1C[C@H]2[C@@H]([C@H]1C(=O)N[C@H](C#N)C[C@@H]1CCNC1=O)C2(C)C [Compound 42]
[1]
  IC50: 0.121 µM
[2]; [4]
  EC50: 2.48 µM

## COC(=O)N(C(=O)C(F)(F)F)[C@H](C(=O)N1C[C@H]2[C@@H]([C@H]1C(=O)N[C@H](C#N)C[C@@H]1CCNC1=O)C2(C)C)C(C)(C)C [Compound 8]
[1]
  IC50: > 30 µM
[2]; [4]
  EC50: 3.11 µM

## CC(C)(C)[C@H](NC(=O)[C@H](NC(=O)c1cnccn1)C1CCCCC1)C(=O)N1C[C@H]2[C@@H]([C@H]1C(=O)N[C@H](C#N)C[C@@H]1CCNC1=O)C2(C)C [Compound 14]
[1]
  IC50: > 30 µM
[2]; [4]
  EC50: > 30 µM

## CC1(C)[C@@H]2[C@@H](C(=O)N[C@H](C#N)C[C@@H]3CCNC3=O)N(C(=O)[C@@H]3CCCN3C(=O)C(F)(F)F)C[C@@H]21 [Compound 5]
[1]
  IC50: > 30 µM
[2]; [4]
  EC50: > 30 µM

## CC(C)(C)OC(=O)N1[C@@H](C(=O)N[C@H](C(=O)N2C[C@H]3[C@@H]([C@H]2C(=O)N[C@H](C#N)C[C@@H]2CCNC2=O)C3(C)C)C(C)(C)C)C[C@H]2CCCC[C@H]21 [Compound 37]
[1]
  IC50: 2.15 µM
[3]; [5]
  EC50: > 30 µM
[2]; [4]
  EC50: 4.49 µM

## CC(C)(C)[C@H](NC(=O)c1cc2ccccc2s1)C(=O)N1C[C@H]2[C@@H]([C@H]1C(=O)N[C@H](C#N)C[C@@H]1CCNC1=O)C2(C)C [Compound 26]
[1]
  IC50: 0.41 µM
[3]; [5]
  EC50: 5.86 µM
[2]; [4]
  EC50: 2.56 µM

## CC(C)(C)[C@H](NC(=O)C1Cc2ccccc2N1)C(=O)N1C[C@H]2[C@@H]([C@H]1C(=O)N[C@H](C#N)C[C@@H]1CCNC1=O)C2(C)C (stereo partly shown) [Compound 45]
[1]
  IC50: 0.385 µM
[2]; [4]
  EC50: 0.96 µM

## CC1(C)[C@@H]2[C@@H](C(=O)N[C@@H](C[C@@H]3CCNC3=O)C(=O)c3nc4ccccc4s3)N(C(=O)[C@@H]3CCN3C(=O)C(F)(F)F)C[C@@H]21 [Compound 11]
[1]
  IC50: 11 µM
[2]; [4]
  EC50: 25.5 µM

## CC(C)(C)[C@H](NC(=S)NC1CCCCC1)C(=O)N1C[C@H]2[C@@H]([C@H]1C(=O)N[C@H](C#N)C[C@@H]1CCNC1=O)C2(C)C [Compound 43]
[1]
  IC50: 1.23 µM
[2]; [4]
  EC50: 3.21 µM

## CC1(C)[C@@H]2[C@@H](C(=O)N[C@@H](C[C@@H]3CCNC3=O)C(=O)c3nc4ccccc4s3)N(C(=O)[C@@H]3CCCN3C(=O)C(F)(F)F)C[C@@H]21 [Compound 10]
[1]
  IC50: > 30 µM
[2]; [4]
  EC50: 22.7 µM

## CC(C)(C)[C@H](NC(=O)c1nc2ccccc2[nH]1)C(=O)N1C[C@H]2[C@@H]([C@H]1C(=O)N[C@H](C#N)C[C@@H]1CCNC1=O)C2(C)C [Compound 41]
[1]
  IC50: 7.88 µM
[3]; [5]
  EC50: > 30 µM
[2]; [4]
  EC50: > 30 µM

## CC(C)(C)[C@H](NC(=O)N1CCCCC1)C(=O)N1C[C@H]2[C@@H]([C@H]1C(=O)N[C@H](C#N)C[C@@H]1CCNC1=O)C2(C)C [Compound 55]
[1]
  IC50: 1.05 µM
[2]; [4]
  EC50: 6.04 µM

## CC(C)(C)OC(=O)N1C2CCC1CC(C(=O)N[C@H](C(=O)N1C[C@H]3[C@@H]([C@H]1C(=O)N[C@H](C#N)C[C@@H]1CCNC1=O)C3(C)C)C(C)(C)C)C2 (stereo partly shown) [Compound 17]
[1]
  IC50: 0.704 µM
[3]; [5]
  EC50: 7.96 µM
[2]; [4]
  EC50: 2.64 µM

## CC(C)(C)[C@H](NC(=O)C1CC2CCC(C1)O2)C(=O)N1C[C@H]2[C@@H]([C@H]1C(=O)N[C@H](C#N)C[C@@H]1CCNC1=O)C2(C)C (stereo partly shown) [Compound 19]
[1]
  IC50: 3.71 µM
[3]; [5]
  EC50: > 30 µM
[2]; [4]
  EC50: > 30 µM

## CC(C)(C)[C@H](NC(=O)c1c(F)c(F)c(F)c(F)c1F)C(=O)N1C[C@H]2[C@@H]([C@H]1C(=O)N[C@H](C#N)C[C@@H]1CCNC1=O)C2(C)C [Compound 30]
[1]
  IC50: 0.714 µM
[3]; [5]
  EC50: 1.8 µM
[2]; [4]
  EC50: 3.56 µM

## CC(C)(C)[C@H](NC(=O)C1COC1)C(=O)N1C[C@H]2[C@@H]([C@H]1C(=O)N[C@H](C#N)C[C@@H]1CCNC1=O)C2(C)C [Compound 21]
[1]
  IC50: 0.161 µM
[3]; [5]
  EC50: > 30 µM
[2]; [4]
  EC50: > 30 µM

## CC1(C)[C@@H]2[C@@H](C(=O)N[C@H](C#N)C[C@@H]3CCNC3=O)N(C(=O)[C@@H]3CCN3C(=O)C(F)(F)F)C[C@@H]21 [Compound 6]
[1]
  IC50: 17.3 µM
[2]; [4]
  EC50: > 30 µM

## CC(C)(C)[C@H](NC(=O)c1cc2ccccn2n1)C(=O)N1C[C@H]2[C@@H]([C@H]1C(=O)N[C@H](C#N)C[C@@H]1CCNC1=O)C2(C)C [Compound 51]
[1]
  IC50: 9.4 µM
[2]; [4]
  EC50: 9.54 µM

## CC(C)(C)[C@H](NC(=O)c1cn2ccccc2n1)C(=O)N1C[C@H]2[C@@H]([C@H]1C(=O)N[C@H](C#N)C[C@@H]1CCNC1=O)C2(C)C [Compound 31]
[1]
  IC50: 2.75 µM
[3]; [5]
  EC50: > 30 µM
[2]; [4]
  EC50: 22.2 µM

## CC(C)(C)[C@H](NC(=O)c1ccc2[nH]ncc2c1)C(=O)N1C[C@H]2[C@@H]([C@H]1C(=O)N[C@H](C#N)C[C@@H]1CCNC1=O)C2(C)C [Compound 24]
[1]
  IC50: 0.143 µM
[3]; [5]
  EC50: 23.4 µM
[2]; [4]
  EC50: 3.61 µM

## COC(C)(C)C(=O)N[C@H](C(=O)N1C[C@H]2[C@@H]([C@H]1C(=O)N[C@H](C#N)C[C@@H]1CCNC1=O)C2(C)C)C(C)(C)C [Compound 25]
[1]
  IC50: 0.161 µM
[3]; [5]
  EC50: 2.47 µM
[2]; [4]
  EC50: 2.35 µM

## CN(C(=O)OC(C)(C)C)C(C)(C)C(=O)N[C@H](C(=O)N1C[C@H]2[C@@H]([C@H]1C(=O)N[C@H](C#N)C[C@@H]1CCNC1=O)C2(C)C)C(C)(C)C [Compound 38]
[1]
  IC50: 9.82 µM
[3]; [5]
  EC50: > 30 µM
[2]; [4]
  EC50: > 30 µM

## CC(C)(C)[C@H](NC(=O)c1ccc2cncn2c1)C(=O)N1C[C@H]2[C@@H]([C@H]1C(=O)N[C@H](C#N)C[C@@H]1CCNC1=O)C2(C)C [Compound 29]
[1]
  IC50: 0.405 µM
[3]; [5]
  EC50: > 30 µM
[2]; [4]
  EC50: > 30 µM

## CC1(C)[C@@H]2[C@@H](C(=O)N[C@H](C#N)C[C@@H]3CCNC3=O)N(C(=O)[C@@H](NC(=O)C(F)(F)F)C34CC(C3)C4)C[C@@H]21 [Compound 50]
[1]
  IC50: 0.06 µM
[2]; [4]
  EC50: 0.27 µM

## CC(C)(C)[C@H](NC(=O)c1cc2ccccc2[nH]1)C(=O)N1C[C@H]2[C@@H]([C@H]1C(=O)N[C@H](C#N)C[C@@H]1CCNC1=O)C2(C)C [Compound 28]
[1]
  IC50: 0.728 µM
[3]; [5]
  EC50: 6.12 µM
[2]; [4]
  EC50: 2.05 µM

## CC(C)(C)[C@H](NC(=O)C(F)(F)F)C(=O)N1C[C@H]2[C@@H]([C@H]1C(=O)N[C@H](C#N)Cc1cncnc1)C2(C)C [Compound 15]
[1]
  IC50: > 30 µM
[2]; [4]
  EC50: > 30 µM

## CC(C)(C)[C@H](NS(=O)(=O)c1cc2ccccc2s1)C(=O)N1C[C@H]2[C@@H]([C@H]1C(=O)N[C@H](C#N)C[C@@H]1CCNC1=O)C2(C)C [Compound 111]
[3]; [5]
  EC50: 0.13 µM
[2]; [4]
  EC50: 0.0034 µM
[2]
  EC50: 0.0046 µM

## CC(C#N)C(=O)N[C@H](C(=O)N1C[C@H]2[C@@H]([C@H]1C(=O)N[C@H](C#N)C[C@@H]1CCNC1=O)C2(C)C)C(C)(C)C (stereo partly shown) [Compound 88]
[3]
  EC50: 4.56 µM
[3]; [5]
  EC50: 2.5 µM
[2]; [4]
  EC50: 0.19 µM
[2]
  EC50: 0.25 µM

## CC(C)(C)[C@H](NS(=O)(=O)c1cc2c(s1)CCCC2)C(=O)N1C[C@H]2[C@@H]([C@H]1C(=O)N[C@H](C#N)C[C@@H]1CCNC1=O)C2(C)C [Compound 135]
[3]
  EC50: 0.067 µM
[3]; [5]
  EC50: 0.064 µM
[2]; [4]
  EC50: 0.024 µM
[2]
  EC50: 0.034 µM

## CC(C)(C)[C@H](NC(=O)[C@H]1C[C@H]2CCCC[C@H]2N1)C(=O)N1C[C@H]2[C@@H]([C@H]1C(=O)N[C@H](C#N)C[C@@H]1CCNC1=O)C2(C)C [Compound 46]
[1]
  IC50: 7.5 µM
[2]; [4]
  EC50: > 30 µM

## CCc1ccc(S(=O)(=O)N[C@H](C(=O)N2C[C@H]3[C@@H]([C@H]2C(=O)N[C@H](C#N)C[C@@H]2CCNC2=O)C3(C)C)C(C)(C)C)s1 [Compound 170]
[3]; [5]
  EC50: 0.14 µM
[2]; [4]
  EC50: 0.038 µM

## CC(C)(C)[C@H](NC(=O)C12CC(F)(C1)C2)C(=O)N1C[C@H]2[C@@H]([C@H]1C(=O)N[C@H](C#N)C[C@@H]1CCNC1=O)C2(C)C [Compound 34]
[3]; [5]
  EC50: 0.534 µM
[2]; [4]
  EC50: 0.27 µM
[2]
  EC50: 0.3 µM and 0.42 µM

## CC(C)(C)OC(=O)N1c2ccccc2CC1C(=O)N[C@H](C(=O)N1C[C@H]2[C@@H]([C@H]1C(=O)N[C@H](C#N)C[C@@H]1CCNC1=O)C2(C)C)C(C)(C)C (stereo partly shown) [Compound 36]
[1]
  IC50: 0.617 µM
[3]; [5]
  EC50: 15.6 µM
[2]; [4]
  EC50: 2.75 µM

## CC(C)(C)[C@H](NC(=O)C=C(C(F)(F)F)C(F)(F)F)C(=O)N1C[C@H]2[C@@H]([C@H]1C(=O)N[C@H](C#N)C[C@@H]1CCNC1=O)C2(C)C [Compound 158]
[3]; [5]
  EC50: > 30 µM
[2]; [4]
  EC50: > 10 µM

## CC(C)(C)[C@H](NC(=O)C#Cc1ccc(C(F)(F)F)cc1)C(=O)N1C[C@H]2[C@@H]([C@H]1C(=O)N[C@H](C#N)C[C@@H]1CCNC1=O)C2(C)C [Compound 154]
[3]; [5]
  EC50: 0.511 µM
[2]; [4]
  EC50: 0.18 µM
